Experimental data taken from PubChem BioAssay AID179 (DTP/NCI, 2004).
The source made the active and inactive calls.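 How the source made its calls: active means compounds giving half or more protection of infected cells from virus-caused growth loss, again on retest; inactive means the rest.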

Tested on: CEM cells HIV-1 protection, formazan growth assay
Assay: NCI AIDS Antiviral Assay
Details: for IC50: measured here: growth of uninfected CEM cells
How it was run: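 Category rules: moderately active means at least 50% protection on retest, and confirmed active means 100% protection reproducibly. The underlying data came from a formazan growth assay in HIV-1-infected CEM cells.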

CC(=O)NC(C=O)C(O[C@H](C)C(=O)NC(C)C(=O)NC(CCC(N)=O)C(=O)OCc1ccccc1)C(O)C(O)COC(=O)CCCCCNc1cccc2[nH]c3ccccc3c(=O)c12 (stereo not given in full)
EC50: > 204 µM | IC50: 126 µM

O=C(CCc1cc(-c2ccccc2)nc(=S)[nH]1)Nc1ccccc1[N+](=O)[O-]
EC50: > 661 µM | IC50: > 661 µM

Cc1cc2occ(/C=C\C3=C(C#N)C(=O)OC(C)(C)C3)c(=O)c2cc1C
EC50: > 7.76 µM | IC50: > 7.76 µM

O=c1[nH]cc(N=Nc2ccc(S(=O)(=O)Nc3ccccn3)cc2)cc1O
EC50: > 200 µM | IC50: 87.1 µM

Nc1ccccc1C(=O)C(Br)C(Br)c1ccc2c(c1)OCO2 (stereo not given)
EC50: > 43.7 µM | IC50: 23.4 µM

CC1(C)CC(=O)c2c(N)n[nH]c2C1
EC50: 11.2 µM | IC50: > 200 µM

CC1=C(C(=O)NNS(=O)(=O)c2ccc(C)cc2)CC(C(=O)NNS(=O)(=O)c2ccc(C)cc2)=C(C)N1
EC50: > 13.5 µM | IC50: > 13.5 µM

N#CC1=C(O)NC(O)=C(C#N)C1c1ccc(C2C(C#N)=C(O)NC(O)=C2C#N)cc1
EC50: > 631 µM | IC50: 35.5 µM

CC(=O)NC(CC(C)C(C)=O)C(=O)O (stereo not given)
EC50: > 200 µM | IC50: > 200 µM

O=C(N/C(=C\c1ccc(/C=C(\NC(=O)c2ccccc2)c2nc3cc([N+](=O)[O-])ccc3[nH]2)cc1)c1nc2cc([N+](=O)[O-])ccc2[nH]1)c1ccccc1
outcome: inactive

O=C1CC[C@H]2[C@@H]3N1c1ccccc1[C@@]31CCN3C/C(=C/CBr)[C@@H]2C[C@H]31
EC50: > 75.9 µM | IC50: > 75.9 µM

CC(C)(C)OC(=O)N1N=NC2C3OC(CC3=O)C21 (stereo not given)
EC50: > 708 µM | IC50: 355 µM

O=C1Cc2ccccc2N1/N=C\c1ccc([N+](=O)[O-])cc1
EC50: > 67.6 µM | IC50: > 67.6 µM

NC(=O)c1ccc(S(=O)(=NS(=O)(=O)c2ccccc2)c2ccc(C(N)=O)cc2)cc1
EC50: > 295 µM | IC50: > 295 µM

N.N.N.O=[N+]([O-])[O-].O=[N+]([O-])[O-].O=[N+]([O-])[O-].O=[N+]([O-])[O-].[Co+3]
EC50: > 692 µM | IC50: 117 µM

CCN(CC)c1ccc(/C=C/c2n(-c3ccccc3)c3ccccc3[n+]2C)cc1
EC50: > 2 µM | IC50: 0.115 µM

NC(=S)N/N=C/c1cc(CN2CCOCC2)c(N)cn1
EC50: > 200 µM | IC50: 10.5 µM

C[C@H]1COC2=C1C(=O)C(=O)c1c2ccc2c1CCCC2(C)C
EC50: > 200 µM | IC50: 8.91 µM

Cc1nc(C)c(N2CCN(C(=O)NC(CCC(=O)O)C(=O)O)CC2)c(=O)[nH]1 (stereo not given)
EC50: > 200 µM | IC50: > 200 µM

Cc1cc(N(CCOS(C)(=O)=O)CCOS(C)(=O)=O)ccc1C=Nc1ccc(-c2nc(Cc3ccccc3)sc2C)cc1
EC50: > 200 µM | IC50: 0.427 µM

N#CC1=C2Sc3ccccc3N2[C@H](c2ccccc2)[C@H]2COC(=O)[C@@H]12
EC50: > 151 µM | IC50: 38 µM

CCCCOCn1c(=O)[nH]c(=O)c2ccccc21
EC50: > 200 µM | IC50: 162 µM

CCC(C)CCOC(=O)c1ccc(N=Cc2ccc(C=Nc3ccc(C(=O)OCCC(C)CC)cc3)cc2)cc1 (stereo not given)
EC50: > 6.61 µM | IC50: > 6.61 µM

OC(COc1ccc2ccccc2c1)COc1ccc2ccccc2c1
EC50: > 200 µM | IC50: 138 µM

C/C(=C\c1ccccc1)n1c(=O)cc(C)n1C
EC50: > 200 µM | IC50: > 200 µM

CCC(NC(C)c1ccccc1)C(=O)c1ccc(OCc2ccccc2)c(OCc2ccccc2)c1 (stereo not given)
EC50: > 200 µM | IC50: > 200 µM

CCN(CC)CCCn1c(=O)c2ccccc2n2c3c(=O)n(C)c(=O)n(C)c3nc12
EC50: > 200 µM | IC50: 1.05 µM

NC(=O)NCCSC1(SCCNC(N)=O)CCCCC1
EC50: > 200 µM | IC50: > 200 µM

CC1OC(O[C@H]2C3C=CO[C@@H](OC4OC(CO)C(O)C(O)C4O)C3[C@@]3(COC(=O)/C=C/c4ccccc4)O[C@@H]23)C(O)C(O)C1O (stereo not given in full)
EC50: > 200 µM | IC50: > 200 µM

COC(=O)C1C2OC(C)(C)OC2CN1S(=O)(=O)c1ccc(C)cc1 (stereo not given)
outcome: inactive

NCCCCCCCCCCC(=O)O
EC50: 151 µM | IC50: > 200 µM

O=[N+]([O-])c1ccc(C2=Nc3ccccc3N=C(c3ccccc3O)C2)cc1
EC50: > 200 µM | IC50: > 200 µM

C#CCNC(CSSCC(N)C(=O)O)C(=O)O (stereo not given)
EC50: 6.92 µM | IC50: > 200 µM

N#C/C(=C1\OC(=N)C(c2ccc(Cl)cc2Cl)C1=O)c1ccc(Cl)cc1Cl (stereo not given)
outcome: inactive

CCOC(=O)C(=Cc1cccc(Br)c1)C(=O)OCC
EC50: > 759 µM | IC50: 468 µM

O=C1C(c2ccccc2)=C(c2ccccc2)C1(Cl)Cl
EC50: > 200 µM | IC50: 2.45 µM

Clc1ccc2c(NCCCCCCNc3ccnc4cc(Cl)ccc34)ccnc2c1
EC50: > 14.1 µM | IC50: 2.4 µM

CC(=O)NS(=O)(=O)c1ccc(NC(=O)c2ccccc2SC(C)=O)cc1
EC50: 17 µM | IC50: 112 µM

C1CCCC(N2N=NC3C4CC(C5N=NN(C6CCCCCC6)C45)C32)CC1 (stereo not given)
EC50: > 200 µM | IC50: > 200 µM

CC(c1ccccc1)N1OC1(c1ccccc1)c1ccccc1 (stereo not given)
EC50: > 105 µM | IC50: 14.5 µM

COC(=O)C1(Cc2ccccc2)Cc2ccccc2C1O (stereo not given)
EC50: > 200 µM | IC50: 91.2 µM

Cc1ccc(OCC(=O)N2N=C(c3ccccc3)CC2(O)c2ccccc2)cc1 (stereo not given)
EC50: > 25.7 µM | IC50: > 25.7 µM

S=c1[nH]c2ccccc2[nH]c1=S
EC50: > 200 µM | IC50: 26.3 µM

Cc1cc2nnc(-c3ccc(C#N)cc3)n2c2nnnn12
EC50: > 200 µM

S=C(N/N=C(/c1ccccc1)c1ccccn1)N1CCCCCC1
EC50: > 0.2 µM | IC50: 0.115 µM

COC(=O)C1=C(C(=O)OC)SC(=C2SC3=C(SC(=C4SCCS4)S3)S2)S1
EC50: > 100 µM | IC50: > 100 µM

COc1ccc(-c2c3c(nc4[nH]c(=S)[nH]c(=S)c24)CCCC3)cc1OC
EC50: > 200 µM | IC50: 49 µM

Cc1ccc(C)c(NC(=O)CC/C(=N\NC(=O)c2c(O)ccc3ccccc23)C(C)C(=O)c2ccc(O)cc2)c1 (stereo not given)
EC50: > 27.5 µM | IC50: 14.5 µM

Clc1ccc(-n2nnc(C3=NCCN3)c2-c2ccccc2)cc1
EC50: > 30.9 µM | IC50: > 30.9 µM

COc1cccc2c1C(=O)c1c(O)c3c(c(O)c1C2=O)C[C@@](O)(C(C)=O)CC3OC1CC(N=[N+]=[N-])C(OC)C(C)O1 (stereo not given in full)
outcome: inactive

C/C=C(C)/C=C/CC(C)CCC=C(C)C (stereo not given)
EC50: > 200 µM | IC50: 85.1 µM

CC(C)=C/C=C1/CS(=O)(=O)C=C1C
EC50: > 200 µM | IC50: 135 µM

CN1C(=O)CC2(C)c3cc(C=O)ccc3N(C)C12 (stereo not given)
outcome: inactive

CSC1=C(C#N)C(=O)N(c2ccc(C)cc2)C(=O)C1C#N (stereo not given)
EC50: > 200 µM | IC50: 151 µM

COc1cc(/C=C2\CC/C(=C\c3ccc(O)c(OC)c3)C2=O)ccc1O
EC50: > 200 µM | IC50: 1.48 µM

O=c1oc(-c2ccccc2)c(-c2ccccc2)c(-c2ccccc2)c1-c1ccccc1
EC50: > 46.8 µM | IC50: 29.5 µM

Cn1[nH]c(=O)ccc1=O
EC50: > 2000 µM | IC50: 1780 µM

CCCCN(CCCC)CC1CC(C(C)(C)C)CCC1O (stereo not given)
EC50: > 200 µM | IC50: 19.5 µM

NC(=O)c1cccc([C@@H]2O[C@H](CO)[C@@H](O)[C@H]2O)c1
EC50: > 977 µM | IC50: 5.37 µM

C=C1CC(COc2ccc3ccc(=O)oc3c2)(c2ccccc2)OC1=O (stereo not given)
EC50: > 2 µM | IC50: 0.724 µM

CC(C)c1cccc(C(C)C)c1NC(=O)C(=O)Cc1nc2ccc([N+](=O)[O-])cc2[nH]c1=O
EC50: > 490 µM | IC50: 89.1 µM

Cn1ccc2c3c(ccc21)C(N1CCOCC1)=CS(=O)(=O)O3
outcome: inactive

COC(=O)CCCCC(c1cc(Cl)c(OC)c(C(=O)OC)c1)c1cc(Cl)c(OC)c(C(=O)OC)c1
EC50: > 200 µM | IC50: 13.5 µM

CC(C)c1cccc(C(C)C)c1NC(=O)/C(CC(=O)CC(c1ccccc1)c1c(O)c2ccccc2oc1=O)=N/O (stereo not given)
EC50: > 89.1 µM | IC50: > 89.1 µM

COc1ccc2nc3cc([N+](=O)[O-])ccc3c(Nc3ccc(S(=O)(=O)Nc4ncccn4)cc3)c2c1
EC50: > 200 µM | IC50: 102 µM

COc1ccc(CC2Cc3ccccc3CCN2)cc1OC (stereo not given)
outcome: inactive

CCCCN(CCCC)CC(C(C)=O)C(c1ccccc1)c1c(O)c2ccccc2oc1=O (stereo not given)
EC50: > 41.7 µM | IC50: > 41.7 µM

COC1(OC)CC2C(=O)N(Cc3ccccc3)C1C=C2S(=O)(=O)c1ccccc1 (stereo not given)
outcome: inactive

C=C=C(CC)C(C(=O)OC)N(CC)CC (stereo not given)
outcome: inactive

CCOC(=O)CC(=O)Nc1cccc2[nH]cnc12
EC50: > 200 µM | IC50: > 200 µM

CSc1c(C#N)c(O)n(-c2ccc(Cl)cc2)c(=O)c1C#N
EC50: > 200 µM | IC50: 33.1 µM

CCCCN1C(=O)C(=O)N(c2ccccc2C(F)(F)F)C1=O
EC50: > 200 µM | IC50: 158 µM

COc1c2c(c3c(c1C1OC(C)[C@@H](C)O1)CC(C)(C)O3)C(=O)c1ccccc1C2=O (stereo not given in full)
EC50: > 63.1 µM | IC50: > 63.1 µM

COc1cc2c(cc1OC)[N+]1(C)CCC3OCCC4C[N+]5(C)CCC26C5CC4C3C61 (stereo not given)
EC50: > 372 µM | IC50: > 372 µM

COc1cc(OC)c2c(=O)c(OC)c(-c3ccc4c(c3)OCO4)oc2c1
EC50: > 200 µM | IC50: > 200 µM

N#CNc1nc(N)c(-c2ccc(Cl)cc2)c(C(=O)Nc2nccs2)n1
EC50: > 676 µM | IC50: > 676 µM

NS(=O)(=O)c1ccc(NC(=O)CC(=O)Nc2ccc(S(N)(=O)=O)cc2)cc1
outcome: inactive

COC(=O)CCn1c(N)nc2c1c(=O)n(C)c(=O)n2C
EC50: > 468 µM | IC50: > 468 µM

NC(=N/N=C(/c1ccccc1)c1ccc(N)cc1)/C(N)=N\N=C(/c1ccccc1)c1ccc(N)cc1
outcome: inactive

C[C@H]1C[C@H]2[C@@H]3CCC4=CC(=O)C=C[C@]4(C)[C@@]3(F)[C@@H](O)C[C@]2(C)C1=O
outcome: inactive

Cc1cnc(SCCN(C)C)nc1-c1cccs1
EC50: > 891 µM | IC50: 22.4 µM

O=c1[nH]c2nccn2c2c1SCCN2
EC50: > 200 µM | IC50: > 200 µM

CCOC(=O)C(=O)/C(=C/N1CCNC1=S)C(=O)OCC
outcome: inactive

O=C(O)C12CCCC(CCC1)C2
outcome: inactive

CC(C)(C)C1=CC(=C(P(=O)(O)O)P(=O)(O)O)C=C(C(C)(C)C)C1=O
EC50: > 537 µM | IC50: > 537 µM
